Experiments:
Type in all cases: cell-based
[1] = test system: Human T-cells stimulated with PHA; experiment: Human T-cell cytokine release stimulated with PHA; details: 100 ug/ml, 10 μg/mL PHA, 48-hour incubation; for Cytokine Release Percent (%) Reduction: IL-2
Method: Human T-cells were collected from a healthy adult […] via leukopheresis. The T-cells were isolated from peripheral blood via Ficol gradient, and the cells were adjusted to a density of 1×10^6 cells/mL in serum free lymphocyte growth medium (ExVivo-15, Biowhittaker, Walkersville, Md.). Human T-cells were stimulated with 10 μg/mL PHA in the presence or absence of test compounds following published method (Hamamoto Y., et al. Exp Dermatol 2:231-235, 1993). Following a 48-hour incubation at 37° C. with 5% CO2, supernatant was removed and evaluated for cytokine content using commercially available multiplex cytokine detection kit.

MRSA [2] = experiment: Agar disc microwell assay, log reduction by plate count; details: about 6 log CFU in saline, 37° C., 200 rpm
Method: (§1) Agar discs containing copper-zinc galvanic particulates from Example 1(a) or zinc acetate at a concentration of 0.1%, 0.5%, or 1% were exposed to about 6 log CFU of MRSA or C. albicans in saline in microwell plate and incubated at 37° C. and 200 rpm for 24 hrs. Plate count was performed to enumerate the viable microorganisms after the incubation. Log reduction was defined as the log difference of the inoculum before and after the incubation with the test articles (e.g., a log reduction of 6 for the inoculum of 6 log means all the inoculum were killed, and a log reduction of 3 for the inoculum of 6 log means […] of the inoculum were killed).
(§2) Agar discs containing 0.1% copper coated zinc galvanic particulates from Example 1(a) or zinc acetate at 1% or copper acetate at 0.1% were exposed to about 6 log CFU of MRSA or C. albicans in saline in microwell plates, and incubated at 37° C., 200 rpm for 24 hr.
(§3) Plate count was performed to enumerate the viable microorganisms after the incubation. Log reduction was defined as the log difference of the inoculum before and after the incubation with the test articles.

C. albicans [3] = experiment: as above; details: about 6 log CFU in saline, 37° C., 200 rpm
Method: as §1, §2, §3

MRSA [4] = experiment: Zone of inhibition testing versus copper acetate and zinc acetate; details: about 6 log CFU, 37° C., 24 hr
Method: (§4) Zone of inhibition testing was performed on agar discs containing copper-zinc galvanic particulates from Example 1(a) at 0.5%, Zn acetate at 0.5%, and Cu acetate at 0.1%. The discs were placed on TSA agar surface, inoculated with about 6 log CFU of MRSA or C. albicans, and incubated at 37° C. for 24 hr.

C. albicans [5] = experiment: as above; details: about 6 log CFU, 37° C., 24 hr
Method: as §4

MRSA [6] = experiment: Sustained efficacy, zone of inhibition on day 1 and after transfer to new plate on day 2; details: 1% in agar disc
Method: (§5) Agars discs containing either galvanic particulates as described in Example 1(a) or zinc acetate at 1% were placed on TSA agar surface inoculated with about 6 log CFU of MRSA or C. albicans and incubated at 37° C. for 24 hr (day-1).

C. albicans [7] = experiment: as above; details: 1% in agar disc
Method: as §5

Human keratinocyte cells = experiment: Stimulation of hydrogen peroxide production, CM-H2DCFDA fluorescence; details: 0.03% positive control
Method: Human keratinocyte cells were seeded in assay plates at identical densities and incubated for 48 hours at 37° C. with 5% CO2. […] Cells were treated with galvanic particulates or zinc or copper metal powders alone over increasing amounts of time. Treatment of control wells with 0.03% hydrogen peroxide served as a positive control. Hydrogen peroxide production was quantitated using a fluorescent plate reader set at wavelengths 485 excitation/530 emission. The results are depicted in Tables 17 and 18.

[8] = Table 2, test material 0.10% in agar disc, 24 hrs
[9] = Table 2, test material 0.50% in agar disc, 24 hrs
[10] = Table 2, test material 1.00% in agar disc, 24 hrs
[11] = Table 4, 1% in agar disc, 24 hr
[12] = same disc moved to newly inoculated TSA plate, 24 hr (day-2)
[13] = Table 4, 0.1% in agar disc, 24 hr

Compound: [Cl-].[Cl-].[Zn+2] [Zinc Chloride]
- Cytokine Release IL-2 [1]: 566.3 ± 20.6 pmol/mL
- Cytokine Release Percent (%) Reduction [1]: −0.6%

Compound: CC(=O)[O-].CC(=O)[O-].[Zn+2] [Zinc Acetate, zinc acetate]
- LOG REDUCTION MRSA (MRSA [2]; [8]): 1.7
- LOG REDUCTION MRSA (MRSA [2]; [9]): 3.2
- LOG REDUCTION MRSA (MRSA [2]; [10]): 5.1
- LOG REDUCTION MRSA (MRSA [2]; [11]): 5.1
- LOG REDUCTION C. albicans (C. albicans [3]; [8]): 2.2
- LOG REDUCTION C. albicans (C. albicans [3]; [9]): 2.9
- LOG REDUCTION C. albicans (C. albicans [3]; [10]): 4.7
- LOG REDUCTION C. albicans (C. albicans [3]; [11]): 4.7
- zone of inhibition (MRSA [4]; 0.5% in agar disc on TSA agar): smaller zone of inhibition, approximately one half the radius
- zone of inhibition (C. albicans [5]; 0.5% in agar disc on TSA agar): smaller zone of inhibition, approximately one half the radius
- zone of inhibition, day 1 (MRSA [6]; 37° C., 24 hr (day-1)): produce a zone of inhibition
- zone of inhibition, day 2 (MRSA [6]; [12]): did not show any inhibition
- zone of inhibition, day 1 (C. albicans [7]; 37° C., 24 hr (day-1)): produce a zone of inhibition
- zone of inhibition, day 2 (C. albicans [7]; [12]): did not show any inhibition

Compound: copper acetate
- Cytokine Release IL-2 [1]: 312.9 ± 96.8 pmol/mL
- Cytokine Release Percent (%) Reduction [1]: 44.4%
- LOG REDUCTION MRSA (MRSA [2]; [13]): 0.2
- LOG REDUCTION C. albicans (C. albicans [3]; [13]): 0.3
- zone of inhibition (MRSA [4]; 0.1% in agar disc on TSA agar): did not show any visible zone of inhibition
- zone of inhibition (C. albicans [5]; 0.1% in agar disc on TSA agar): did not show any visible zone of inhibition

Compound: OO [Example H2O2, hydrogen peroxide]
- Hydrogen peroxide production (fluorescence), 30 Minutes (Human keratinocyte cells): 416.6 ± 61.3
- Hydrogen peroxide production (fluorescence), 60 Minutes (Human keratinocyte cells): 591.4 ± 82.7
- Hydrogen peroxide production (fluorescence), 200 Minutes (Human keratinocyte cells): 1117.5 ± 153.8
- Hydrogen peroxide production (fluorescence), 240 Minutes (Human keratinocyte cells): 1214.8 ± 149.7
- Hydrogen peroxide production (fluorescence), Baseline (Human keratinocyte cells): 98.1 ± 4.4

Compound: C[C@]12CCC(=O)C=C1CC[C@@H]1[C@@H]2[C@@H](O)C[C@@]2(C)[C@H]1CC[C@]2(O)C(=O)CO [Hydrocortisone]
- Cytokine Release IL-2 [1]: 7.69 ± 5.64 pmol/mL
- Cytokine Release Percent (%) Reduction [1]: 98.6%

From patent US20130295150A1, “ELECTRICITY-GENERATING PARTICULATES AND THE USE THEREOF” (Johnson & Johnson Consumer Companies, Inc., priority 2007, published 2013)
